# Assays:
# Format in all cases: in vivo
# [1] = test system: velvetleaf (Abutilon theophrasti Medik.); experiment: Example 1: pot test, foliar treatment of velvetleaf, visual growth inhibition rate; conditions: 12th day after foliar treatment
# Procedure: (§1) Upland field soil was put into a 1/1,000,000 hectare pot, and seeds of velvetleaf (Abutilon theophrasti Medik.) were sown. […] Further, the growth inhibition rate (expected value) was calculated in accordance with the Colby's formula.
# [2] = test system: velvetleaf (Abutilon theophrasti Medik.); experiment: Example 2: pot test, foliar treatment of velvetleaf, visual growth inhibition rate; conditions: 15th day after foliar treatment
# Procedure: as §1
# [3] = test system: velvetleaf (Abutilon theophrasti Medik.); experiment: Example 3: pot test, foliar treatment of velvetleaf, pyroxsulam versus penoxsulam
# Procedure: as §1
smiles,measurement,setting,value
"CCn1ncc(C(=O)c2ccc(S(C)(=O)=O)c(OCCOC)c2C)c1OC(C)OC(=O)OC (stereo not drawn) [Tolpyralate, tolpyralate]",Growth inhibition rate (%) Measured value (A),[1]; dose 2.5 g/ha,20%
same,Growth inhibition rate (%) Measured value (A),[1]; dose 3.75 g/ha,27%
same,Growth inhibition rate (%) Measured value (A),[2]; dose 2.5 g/ha,37%
same,Growth inhibition rate (%) Measured value (A),"[3]; dose 2.5 g/ha, 8th day after foliar treatment",10%
"COc1cc(OC)n2nc(NS(=O)(=O)c3c(C(F)(F)F)ccnc3OC)nc2n1 [Pyroxsulam, pyroxsulam]",Growth inhibition rate (%) Measured value (A),[1]; dose 0.5 g/ha,2%
same,Growth inhibition rate (%) Measured value (A),[1]; dose 1.5 g/ha,17%
same,Growth inhibition rate (%) Measured value (A),[1]; dose 2.25 g/ha,25%
same,Growth inhibition rate (%) Measured value (A),[1]; dose 3 g/ha,27%
same,Growth inhibition rate (%) Measured value (A),[2]; dose 0.125 g/ha,0%
same,Growth inhibition rate (%) Measured value (A),[2]; dose 0.25 g/ha,0%
same,Growth inhibition rate (%) Measured value (A),[2]; dose 0.5 g/ha,0%
same,Growth inhibition rate (%) Measured value (A),[2]; dose 3 g/ha,20%
same,Growth inhibition rate (%) Measured value (A),[2]; dose 4 g/ha,30%
same,Growth inhibition rate (%) Measured value (A),[2]; dose 5 g/ha,33%
same,Growth inhibition rate (%) Measured value (A),[2]; dose 6 g/ha,35%
same,Growth inhibition rate (%) Measured value (A),"[3]; dose 0.5 g/ha, 8th day after foliar treatment",0%
same,Growth inhibition rate (%) Measured value (A),"[3]; dose 3 g/ha, 8th day after foliar treatment",32%
"COc1cnc(OC)n2nc(NS(=O)(=O)c3c(OCC(F)F)cccc3C(F)(F)F)nc12 [Penoxsulam, penoxsulam]",inhibition at 0.5 g/ha,"[3]; Abutilon theophrasti, dose 0.5 g/ha, 8th day after foliar treatment, read-out: Growth inhibition rate (%) Measured value (A)",0%
same,inhibition at […],"[3]; Abutilon theophrasti, dose 0.75 g/ha, 8th day after foliar treatment, read-out: Growth inhibition rate (%) Measured value (A)",0%
same,inhibition at 3 g/ha,"[3]; Abutilon theophrasti, dose 3 g/ha, 8th day after foliar treatment, read-out: Growth inhibition rate (%) Measured value (A)",37%
same,grow inhibition compared with expected (Colby),"[3]; combined with tolpyralate, summary in words of Table 3, 8th day",a grow inhibition rate more than expected was not obtained

# Source: patent US12239133B2, “Herbicidal composition” (ISHIHARA SANGYO KAISHA, LTD., priority 2019, dated 2025)
